Publication PMC5555576, “Selective small-chemical inhibitors of protein arginine methyltransferase 5 with anti-lung cancer activity” (PLoS ONE, 2017)
Where “and” joins values, the source holds several entries; their conditions need not be identical. Equal values may be shown once. Read-outs that look alike come from different tables or passages of the source.

Experiments:
[1] = tested on: PRMT5; details: cited from earlier work; for selectivity for PRMT5: versus PRMT1, CARM1, or PRMT7
[2] = biological target: T1, PRMT5 (Homo sapiens, UniProt O14744); test: Radioactive methyltransferase assay, PRMT5; assay type: biochemical; details: methylation of SmD3 by PRMT5; Table 1 prints no unit, μM; read-out: IC50
T1 construct: His6; made in house; host or cells: E. coli BL21(ED3) [sic]
T1 sequence (O14744 whole entry): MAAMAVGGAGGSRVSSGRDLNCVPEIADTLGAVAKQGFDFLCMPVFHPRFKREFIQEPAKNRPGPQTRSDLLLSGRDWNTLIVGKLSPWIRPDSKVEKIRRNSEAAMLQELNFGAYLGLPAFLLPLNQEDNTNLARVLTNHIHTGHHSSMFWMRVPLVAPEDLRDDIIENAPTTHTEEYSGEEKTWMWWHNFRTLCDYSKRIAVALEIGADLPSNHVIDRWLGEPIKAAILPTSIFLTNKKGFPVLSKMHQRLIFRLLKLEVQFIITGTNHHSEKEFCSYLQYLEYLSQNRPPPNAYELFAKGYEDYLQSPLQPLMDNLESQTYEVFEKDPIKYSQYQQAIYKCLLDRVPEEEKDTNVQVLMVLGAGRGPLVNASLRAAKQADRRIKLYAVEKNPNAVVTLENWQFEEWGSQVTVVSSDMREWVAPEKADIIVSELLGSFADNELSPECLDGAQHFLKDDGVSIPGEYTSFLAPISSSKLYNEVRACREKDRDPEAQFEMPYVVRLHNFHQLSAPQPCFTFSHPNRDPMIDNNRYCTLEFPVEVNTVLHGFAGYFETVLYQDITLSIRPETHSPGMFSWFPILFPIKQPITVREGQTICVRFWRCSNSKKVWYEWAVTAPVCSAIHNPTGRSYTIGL
Description: (§1) Methylation reactions were performed as previously described with a few modifications. Reaction mixtures (40 μl) containing 1.2 μg of PRMT5, 98 ng of PRMT1 or 98 ng of PRMT3; 2 μg of SmD3 or histones; 1 μCi of S-[methyl-^3H]adenosylmethionine (H^3-AdoMet; PerkinElmer); and 5 μM AdoMet were incubated in 50 mM Tris-HCl (pH 7.5)–1 mM EGTA–1 mM EDTA at 30°C for 2 h. Reaction mixtures (20 μl) were boiled in 5 μl of 5x SDS sample buffer and separated on a 15% polyacrylamide gel. Gels were fixed for 30 min in 40% methanol–10% acetic acid, incubated in 20 ml of Amplify (Amersham Life Science) for 10 min, dried and exposed to X-ray film at -80°C. IC50 was calculated by linear regression analysis of percent inhibition. The other half (20 μl) of each reaction mixture was spread onto DE81 chromatography paper discs (Whatman). The paper discs were washed 4 times with 50 mM NaHCO3 and dried. The amounts of methylated products were quantified by liquid scintillation.
In vitro methylation reactions were performed with recombinant PRMT5 (1.2 μg), PRMT1 ([…]) or PRMT3 (89 ng); [H^3]-AdoMet; and different substrates in the presence of identified compounds. […] The recombinant SmD3 (2 μg) was used as the substrate in the absence (lane 2) or presence of 1, 10 or 100 μM compounds as indicated. Reaction mixtures were separated on an SDS–15% polyacrylamide gel and the gel was dried under vacuum and exposed to film. […] Recombinant histones H4 or H2A (1 μg) were used as substrates of PRMT5 in the methylation assay in the absence or presence of 100 μM compounds as indicated. Reaction mixtures were spread onto DE81 chromatography paper discs. After a wash, the amounts of methylated products on discs were quantified by liquid scintillation. […] PRMT1 was incubated with purified histones (1 μg) or recombinant E2F1 (1 μg) as substrates in the absence (lane 2) or presence of 100 μM compounds as indicated. Reaction mixtures were separated on an SDS–15% polyacrylamide gel and the gel was dried and exposed to film.

[3] = tested on: PRMT5 F225M; test: Radioactive methyltransferase assay, mutant PRMT5; assay type: biochemical, human; details: Phe225 to Met
Description: as §1
(§2) The inhibitory activity of the compounds may stem from this interaction. To test this possibility, we conducted site-directed mutagenesis to mutate Phe225 in human PRMT5 (corresponding to Phe379 in the C. elegans PRMT5) to Met. The mutated PRMT5 was expressed in bacteria and purified by Ni-nitrilotriacetic acid (Ni-NTA) affinity chromatography (Fig 4A). The activity of the mutant PRMT5 was examined by the radioactive methyltransferase assay. […] The IC50 values for the mutant PRMT5 increased from 4.3 to 183 folds higher than those for the wild type PRMT5 (Fig 4D). […] The results also can help explain the specificity of the compounds to PRMT5. However, the contribution of this interaction to inhibition varies among the compounds. For example, compound C2 interacts with three amino acid residues (Lys451, Glu450, and Phe379) (Fig 3A) with the mutation of Phe to Met resulting in a 50-times higher IC50 (Fig 4C and 4D).
(§3) Fig 4 The conserved phenylalanine residue in PRMT5 is critical for inhibition by the five compounds. A, DS-PAGE of recombinant wild type (WT) and F225M mutant (MT) PRMT5. The gel was stained with Coomassie Brilliant Blue R250. A band corresponding to an unknown bacterial protein is indicated (star). B, The F225M mutation increased the methytransferase activity of PRMT5. In vitro methylation reactions were performed with recombinant wild type (lanes 2–4) or mutant (lanes 5–7) PRMT5 (1.2, 2.4 or 4.8 μg) and SmD3 (2 μg) as the substrate. C, The F225M mutation in PRMT5 decreased inhibition of arginine methylation by the compounds. The reaction mixture contained SmD3 (2 μg); wild type or mutant PRMT5 (1.2 μg); and 1, 10 or 100 μM compounds as indicated. D, The F225M mutation in PRMT5 […] of the compounds, as determined by quantitation and analysis of methylation assay results. TEXT PRINTED IN THE PICTURE: (D) C2: IC50 (μM) PRMT5: 0.1; IC50 (μM) PRMT5 F225M: 5.0 | (D) C5: IC50 (μM) PRMT5: 0.8; IC50 (μM) PRMT5 F225M: 3.5 | (D) C6: IC50 (μM) PRMT5: 0.5; IC50 (μM) PRMT5 F225M: 7.0 | (D) C9: IC50 (μM) PRMT5: 6.0; IC50 (μM) PRMT5 F225M: 45.0 | (D) C11: IC50 (μM) PRMT5: 0.3; IC50 (μM) PRMT5 F225M: 55.0

[4] = biological target: T2, PRMT5 F225M (Homo sapiens, UniProt O14744, F327M); test: Radioactive methyltransferase assay, mutant PRMT5; assay type: biochemical; details: F225M mutant PRMT5, SmD3 substrate, Fig 4D
T2 construct: His6; made in house; host or cells: bacteria (E. coli BL21(ED3) for the wild type)
T2 sequence (O14744 whole entry F327M): as the sequence (O14744 whole entry) above, with F327M counted along it
Description: as §1, §2, §3

[5] = biological target: T1, PRMT5; test: Steady-state kinetic analysis of PRMT5 inhibition (time-dependent inhibition assay); assay type: biochemical
Description: Different amounts of compound C2 or C5 were present in the final methylation reaction mixtures with 1.2 μg of PRMT5, 5 μM AdoMet, 2 μCi of H^3-AdoMet and various concentrations of SmD3. After a 10-, 20- or 30-min incubation at 30 °C or no incubation, the reaction mixtures were spread onto DE81 chromatography paper discs and the amounts of methylated products were quantified by liquid scintillation. Amounts (counts per minute [cpm]) of methylated products and incubation time (minutes) were plotted and reaction velocity (cpm per minute) was deduced.
To understand the mechanism of inhibition of identified compounds, we analyzed the kinetic pattern of inhibition using steady-state enzymatic measurements. The velocities of PRMT5 methylation of SmD3 were measured at several selected concentrations of compounds C2 and C5 over a range of SmD3 concentrations. Plotted in the double-reciprocal format with 1/velocity versus 1/[SmD3]
Fig 5 Steady-state kinetic analysis of PRMT5 inhibition by compounds C2 and C5. Double-reciprocal plot of reaction velocities (cpm per minute) versus concentrations of SmD3. Methylation reaction mixtures contained various concentrations of C2 (left) or C5 (right), various concentrations of SmD3, 1.2 μg of PRMT5 and 5 μM AdoMet. The mixtures were incubated for different times and the amounts of methylated products were quantified using DE81 paper and liquid scintillation. Reaction velocity was calculated as H^3 incorporation (cpm) into SmD3 per minute.

[6] = tested on: A549 cells; test: Cellular permeability and stability by HPLC of cell extracts; assay type: in vitro ADME; details: 2 hr in medium with compound
Description: Waters 2695 HPLC System and a C18 column (Symmetry, 3.6 x 75 mm) were used. The column was equilibrated with 10% acetonitrile and eluated with a linear gradient from 10% acetonitrile to 100% acetonitrile in 60 min. Compounds were dissolved in 10% acetonitrile and the purchased compounds (ChemBridge) were used as the standards.
We then determined whether the identified compounds are cell-permeable. Lung cancer A549 cells were cultured in medium containing various concentrations of the respective compound for 2 hr. Cells were harvested and washed with PBS. The compounds were extracted with ethyl acetate from cells and analyzed by HPLC with a C18 column using the purchased compound as the standard. Compounds C2, C5, C9 and C11 are cell-permeable (Fig 6A), which is consistent with their tPSAs <140 angstroms square (Table 1). […] We even noticed that the compound C5 crystalized inside the cells.
A, The cellular permeability of identified compounds. Lung cancer A549 cells were cultured in the presence of various concentrations of compounds for 2h and the compound concentrations in the cell were determined by HPLC chromatography with a C18 column. B, The cellular stability of identified compounds. Lung cancer A549 cells were cultured in the presence of compounds (20 μM) for 2 h and then the medium was removed. Cells were washed with the medium and cultured for additional 5 or 10 h after the compounds were removed. The compound concentrations in the cell were determined by HPLC chromatography with a C18 column. […] A549 cells were grown in the presence of DMSO or compound C5, C9 or C11 (20 μM). Histones were purified and analyzed by SDS-PAGE stained with Commassie blue (lanes 1–4, bottom) or by Western blot with anti-symmetric dimethyl arginine antibody (SYM10) (lanes 1–4, top). B-Raf was immunoprecipitated with anti-B-Raf antibody from whole cell lysates and submitted for Western blot analysis with anti-B-Raf (lanes 5 and 6, bottom) or anti-symmetric dimethyl arginine (lanes 5 and 6, top) antibody.

[7] = tested on: PRMT5-target genes in A549 cells; test: Real-time PCR of PRMT5-regulated genes; assay type: cell-based; details: 50 μM, 24 hrs
Description: We identified a set of genes whose expression was altered by silencing PRMT5 expression in lung cancer A549 cells. A549 cells were treated with C9a and EPZ015666 and expression of 6 identified PRMT5-regulated genes was analyzed. […] The future study would use genome-wide approach to determine genes whose expression is affected by PRMT5 inhibitors.
Supplementary file pone.0181601.s005.tif: S5 Fig PRMT5 inhibitors selectively affect PRMT5-target genes in lung cancer cells. RNAs were isolated from cells cultured in the presence of DMSO, EPZ015666 (Sigma-Aldrich) (50 μM), or C9a (50 μM) for 24 hrs and submitted to RT-RCR analysis of gene expression in cancer cell lines. Relative mRNA levels = mRNA in cells treated with PRMT5-inhibtor/mRNA in DMSo-treated cells. (TIF) Click here for additional data file.

[8] = tested on: MCL xenograft models; parameters: method as in PMID 25915199; details: cited from earlier work
[9] = tested on: CDK4/6 (Rb pS811) in A549 cells; test: Western blot of Rb phosphorylation at S811; assay type: cell-based; details: 20 μM, 4 h
Text: The retinoblastoma protein (Rb) is phosphorylated by CKDs in cells.
(TIF) Click here for additional data file.

[10] = single replicate, vs control, actin-normalised, listed as EPZ

For `CCn1c2ccccc2c2cc(CNCc3ccccn3)ccc21` [CMP5], the “selectivity for PRMT5” value [1] is given as “specifically inhibited PRMT5 rather than PRMT1, CARM1, or PRMT7”.
Molecule `COc1nc(Nc2ccc(-c3nc4ccccc4o3)cc2)nc(OC)n1` [Compound C1] has an IC50 [2] of 0.5 µM.
With `Cc1ccnc(NC(=O)c2ccc(COc3ccc(Cl)cc3)o2)c1` [Compound C2] the “increase of IC50 for mutant PRMT5 over wild type PRMT5” value [3] was 50 fold, the IC50 [4] was 5 µM and the IC50 [2] was 0.1 µM. For the same molecule, the “mode of inhibition with regard to SAM” value [5] was “not competitive inhibitors”, the “mode of inhibition with regard to the SmD3 substrate” value ([5]; double-reciprocal plot) was “competitive inhibitors” and the cell permeability [6] was “cell-permeable”.
`Nc1c(C(=O)Nc2ccccc2)sc2nc3c(cc12)CCC3` [Compound C4] showed an IC50 [2] of 0.6 µM.
With `CCc1ccc(-c2cn3c4ccccc4nc3n2CCN2CCOCC2)cc1` [Compound C6] the IC50 [4] was 7 µM, the IC50 [2] was 0.5 µM and the cell permeability [6] was “not cell-permeable”.
For `O=C(Nc1nccs1)c1ccc(COc2ccc(F)cc2)o1` [Compound C7], the IC50 [2] was 2.5 µM.
In the case of `CCNC(=O)NCCSC[C@H]1O[C@@H](n2cnc3c(N)ncnc32)[C@H](O)[C@@H]1O` [DS-437], the IC50 ([1]; AdoMet competitor, cofactor-binding site) is given as 6000 nM.
In the case of `O=C(NC[C@H](O)CN1CCc2ccccc2C1)c1cc(NC2COC2)ncn1` [EPZ015666, reference compound], the IC50 [1] is listed as […], the “EXPRESSION FOLD CHANGE avg BTG2” value ([7]; average) is listed as […] and the “EXPRESSION FOLD CHANGE avg FGFR1” value ([7]; average) is listed as […]. For the same molecule, the “EXPRESSION FOLD CHANGE avg FOXO3” value ([7]; average) was […], the “EXPRESSION FOLD CHANGE avg GLIPR1” value ([7]; average) was […] and the “EXPRESSION FOLD CHANGE avg PTTG1” value ([7]; average) was […]. The “EXPRESSION FOLD CHANGE avg TIGAR” value ([7]; average) was […], the “EXPRESSION FOLD CHANGE BTG2” value [7, 10] was […] and the “EXPRESSION FOLD CHANGE FGFR1” value [7, 10] was […]. The “EXPRESSION FOLD CHANGE FOXO3” value [7, 10] was […], the “EXPRESSION FOLD CHANGE GLIPR1” value [7, 10] was […] and the “EXPRESSION FOLD CHANGE PTTG1” value [7, 10] was […]. The “EXPRESSION FOLD CHANGE TIGAR” value [7, 10] was […] and the antitumor activity [8] was “demonstrated antitumor activity in multiple MCL xenograft models”.
For `CCn1c2ccccc2c2cc(CNCc3ccccc3OC)ccc21.Cl` [HLCL-61], the “selectivity for PRMT5” value [1] is given as “specifically inhibited PRMT5 rather than PRMT1, CARM1, or PRMT7”.
For `CC(=O)c1c(C)c2cnc(Nc3ccc(N4CCNCC4)cn3)nc2n(C2CCCC2)c1=O` [Palbociclib, reference compound], the “Rb phosphorylation at the site S811 by CDK4/6” value [9] was “inhibited”.
